The record followed here is patent EP0579804B1, “BIOLOGICAL ARTIFICIAL LIVER” (MONSANTO COMPANY, priority 1992, dated 1993).

The test system of the series is Hepatocytes. The series can be described thus: extracorporeal hepatic metabolism in the hepatocyte bioreactor attached to an ahepatic pig. The series is classed as in vitro ADME, outbred Yorkshire/white pig. As to conditions: administered into the ultrafiltrate at the inlet of the bioreactor; metabolites 7-OH-coumarin and monoethylglycinexylidide (MEGX) measured at the outlets of the bioreactors.

Each structure is given as a SMILES string.

Procedure: The medium used was the hormone-supplemented Waymouth medium as described in Example 1. To accommodate 2 to 5 billion cells, the bioreactor was scaled up to two containment vessels, each with an internal diameter of 40 mm and a height of 100 mm. Glass beads of approx. 2 mm diameter and a total volume of 250 ml per containment vessel were used. Medium was perfused at a recycle rate of 360 ml/min.. […] The bioreactor was attached to an ahepatic pig (liver removed by surgery to mimic total hepatic failure) at approx. 2 hrs. after hepatocyte inoculation. Blood from the left femoral artery was directed into a Minntech hemoconcentrator. A 12 fringe elecath canula was inserted into the femoral artery and connected to a 1/4" PVC tubing to the hemoconcentrator. The hemoconcentrator separated the blood into a cell free ultrafiltrate fraction, and a blood cell fraction. The blood cell fraction was returned to the femoral vein via a similar tubing. The ultrafiltrate exited the hemoconcentrator via a 1/4" PVC tubing and entered the hepatocyte bioreactor system with the flow rate adjusted to 40 ml/min. using a roller pump. […] The respective metabolites, 7-OH-coumarin and monoethylglycinexylidide (MEGX), were measured at the outlets of the bioreactors before the ultrafiltrate was returned to the animal.

On to `CCOc1ccc2ccc(=O)oc2c1` [7-ethoxycoumarin], for which the metabolism entry was “Significant metabolism”.
